Experimental findings from US7977466B2, “C-glycoside derivatives and salts thereof” (Astellas Pharma Inc., priority 2003, dated 2011) are described below.

As a reminder, the IC50 is the concentration that inhibits the measured activity by half. A high value points to a need for much substance.

One assay addresses T1, human SGLT2 (Homo sapiens, UniProt P31639).
T1 construct: expressed in transfected cells; host or cells: CHO-K1
T1 sequence (P31639 1-672): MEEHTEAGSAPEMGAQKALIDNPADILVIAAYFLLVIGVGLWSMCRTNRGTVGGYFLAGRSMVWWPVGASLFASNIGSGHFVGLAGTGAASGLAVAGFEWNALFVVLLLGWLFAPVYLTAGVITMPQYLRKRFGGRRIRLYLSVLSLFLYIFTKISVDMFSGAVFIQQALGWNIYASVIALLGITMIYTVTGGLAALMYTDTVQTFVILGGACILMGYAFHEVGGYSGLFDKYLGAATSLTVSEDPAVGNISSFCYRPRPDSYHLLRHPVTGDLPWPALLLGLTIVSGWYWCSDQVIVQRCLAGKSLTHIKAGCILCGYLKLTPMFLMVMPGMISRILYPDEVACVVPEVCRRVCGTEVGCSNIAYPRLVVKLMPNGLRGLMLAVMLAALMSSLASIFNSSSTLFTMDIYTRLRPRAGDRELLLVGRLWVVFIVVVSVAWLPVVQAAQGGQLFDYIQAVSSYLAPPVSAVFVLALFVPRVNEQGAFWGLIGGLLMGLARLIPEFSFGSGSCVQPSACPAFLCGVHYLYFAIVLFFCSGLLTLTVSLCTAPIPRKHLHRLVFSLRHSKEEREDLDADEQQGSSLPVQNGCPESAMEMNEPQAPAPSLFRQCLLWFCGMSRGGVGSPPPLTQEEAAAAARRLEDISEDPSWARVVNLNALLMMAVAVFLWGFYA
The assay is described as follows: Inhibition of human Na+-glucose cotransporter (human SGLT2) activity: methyl-α-D-glucopyranoside intake in CHO cells stably expressing human SGLT2. Format: cell-based. The note with it: CHO cell stably expressing human SGLT2; methyl-α-D-(U-14C)glucopyranoside intake, 37° C., two hours. From the text:
Inhibition of Human Na^+-Glucose Cotransporter (Human SGLT2) Activity
(1) Preparation of Human SGLT 2 Expression Vector
First, single-strand cDNA was reversely transcripted from total RNA originating from the human kidney (manufactured by BD Biosciences Clontech) using a Superscript II (manufactured by Invitrogen Corporation) and a random hexamer. Second, using the cDNA as a template, a DNA fragment encoding a human SGLT2 (Wells, R. G. et al., Am. J. Physiol., 1992, 263(3) F459) was amplified by the PCR reaction using Pyrobest DNA polymerase (manufactured by Takara Bio Inc.). That is, a Hind III site and an EcoRI site were inserted into the 5′ side and the 3′ side of the DNA fragment, respectively by using primers.
The amplified fragment was cloned into a pCR2.1-Topo vector using a Topo TA Cloning Kit (manufactured by Invitrogen Corporation) and the cloned vector was transfected into a competent cell of Escherichia coli JM109. Ampicillin-resistant clones were cultured in a LB medium containing ampicillin (100 mg/l). A plasmid was purified from the cultured Escherichia coli using the method of Hanahan (see Maniatis et al., “Molecular Cloning”). A DNA fragment for encoding a human SGLT2 was obtained by the Hind III/EcoRI digestion of the plasmid and ligated and cloned to the same site of the expression vector pcDNA 3.1 (manufactured by Invitrogen Corporation) using a DNA ligase (manufactured by Roche Diagnostics). The ligated clone was transfected into a competent cell of Escherichia coli JM109 in the same manner as described above and cultured in a LB medium containing ampicillin, and a human SGLT2 expression vector was obtained using the method of Hanahan.
(2) Preparation of Human SGLT2 Expressed Cells
The human SGLT2 expression vector was transfected into a CHO-K1 cell using Lipofectamine2000 (manufactured by Invitrogen Corporation). The cell was cultured in a Ham's F12 medium (manufactured by Nissui Pharmaceutical Co., Ltd.) containing penicillin (50 IU/ml, manufactured by Dainippon Pharmaceutical Co., Ltd.), streptomycin (50 μg/ml, manufactured by Dainippon Pharmaceutical Co., Ltd.), Geneticin (40 μg/ml, manufactured by Invitrogen Corporation), and 10% fetal bovine serum in the presence of 5% CO2 at 37° C. for two weeks, and Geneticin-resistant clones were obtained.
(3) Inhibition of methyl-α-D-glucopyranoside Intake
After removing the medium of a CHO cell which stably expresses the human SGLT2, a pretreatment buffer solution (buffer solution of pH 7.4 containing choline chloride (140 mM), potassium chloride (2 mM), calcium chloride (1 mM), magnesium chloride (1 mM), 2-[4-(2-hydroxyethyl)1-piperazinyl]ethanesulfonic acid (10 mM), and tris(hydroxymethyl)aminomethane (5 mM)) was added in the amount of 100 μl per well, and incubated at 37° C. for 20 minutes.
11 μl of methyl-α-D-(U-14C)glucopyranoside (manufactured by Amersham Pharmacia Biotech) was mixed with 1,000 μl of a buffer solution for intake containing a test compound (buffer solution of pH 7.4 containing sodium chloride (140 mM), potassium chloride (2 mM), calcium chloride (1 mM), magnesium chloride (1 mM), methyl-α-D-glucopyranoside (50 μM), 2-[4-(2-hydroxy ethyl)1-piperazinyl]ethanesulfonic acid (10 mM), and tris(hydroxymethyl)aminomethane (5 mM)) to prepare a buffer solution for intake. A buffer solution for intake without a test compound was prepared for a control group. A buffer solution for basal intake without a test compound containing choline chloride (140 mM) instead of sodium chloride for measuring the basal intake was prepared as well.
After removing the pretreatment buffer solution, the buffer solution for intake was added (25 μl per well) and incubated at 37° C. for two hours. […]

The test system of assay [1] is blood glucose of KK-A^y mice. In words: Hypoglycemic activity confirmation test in fed KK-Ay mice. To be noted: fed male KK-A^y mice, oral, suspension 1 mg/10 ml in 0.5% methylcellulose at 10 ml/kg. In kind it is in vivo, mouse. As to the method: Hypoglycemic Activity Confirmation Test
Fed KK-A^y mice (CLEA Japan, Inc., male) were used. The test compound was suspended in 0.5% methylcellulose solution to a concentration of 1 mg/10 ml. The weight of each mouse was measured. The test compound suspension was orally administered to the mice at a dose of 10 ml/kg. Only 0.5% methylcellulose solution was administered to the mice of a control group. Each group consisted of six mice. Blood was collected from the tail vein immediately before administering the compound and one, two, four, and eight hours after administering the compound. The blood glucose value was measured using a glucose CII Test Wako (manufactured by Wako Pure Chemical Industries, Ltd.). The intensity of hypoglycemic activity was determined by calculating the area under the blood glucose value-time curve (AUC) using a trapezoidal method from the glucose value of 0-8 hours after administering the compound and calculating the rate (%) of the decrease in the AUC of the drug-administered group from that of the control group.

At human SGLT2, `COc1ccc(Cc2cc3ccccc3s2)cc1[C@@H]1O[C@H](CO)[C@@H](O)[C@H](O)[C@H]1O` [Example 117] registered an IC50 of 13 nM.

For `COc1ccc([C@@H]2O[C@H](CO)[C@@H](O)[C@H](O)[C@H]2O)cc1Cc1cc2ccccc2s1` [Example 134], at human SGLT2, half-maximal inhibition (IC50) required 14 nM. Moreover, the “Hypoglycemic activity (rate of decrease in blood glucose AUC 0-8 hours versus control group)” value in assay [1] amounted to 39%. On human SGLT2, `COc1cc(OC)c([C@@H]2O[C@H](CO)[C@@H](O)[C@H](O)[C@H]2O)cc1Cc1cc2ccccc2s1` [Example 141] returned an IC50 of 3.8 nM. In assay [1], the “Hypoglycemic activity (rate of decrease in blood glucose AUC 0-8 hours versus control group)” value came out at 34%. Regarding `OC[C@H]1O[C@@H](c2cc(Cc3cc4ccccc4s3)c(O)cc2O)[C@H](O)[C@@H](O)[C@@H]1O` [Example 142], at human SGLT2, the IC50 was 21 nM. Still for that read-out and setting: the result for `CCc1ccc(Cc2nc([C@@H]3O[C@H](CO)[C@@H](O)[C@H](O)[C@H]3O)c(Cl)nc2Cl)cc1` [Example 150] reads 6.5 nM; that for `OC[C@H]1O[C@@H](c2cc(Cc3cc4ccsc4s3)ccc2O)[C@H](O)[C@@H](O)[C@@H]1O` [Example 174], 6.6 nM.
